Test results reported in US20150031628A1, “METHODS AND FORMULATIONS FOR CONVERTING INTRAVENOUS AND INJECTABLE DRUGS INTO ORAL DOSAGE FORMS” (ZOMANEX, LLC, priority 2007, published 2015).

Experiments:
in vivo [1] = conditions: female, beagle, dog, plasma, po, 20 mg
Procedure: (§1) To these ends, pharmacokinetic studies were performed in five naïve, female beagle dogs with each drug dosed in a formulation system using a crossover design, with a one week wash out period between doses. […] Following a 16-hour fast, the animals were fed a small amount (approximately ¼ can) of Hill/s Science Diet A/D and thirty minutes later each animal was orally dosed with one of the formulations of the appropriate test article. Blood samples were drawn 0.5, 1.0, 1.5, 3.0, 4.5, 8.0, and 24 hours after dosing.
The liquid was then dosed to the animal with a syringe. Water was then added to the syringe and the washing was administered to the dog.
After dosing with each formulation, all the blood samples were collected in a sodium heparin anticoagulant tube, processed to plasma and frozen at −80° C. Plasma Paclitaxel concentration at each time point for each of the five dogs was determined by high throughput liquid chromatographic-tandem mass spectrometric quantification at Bioanalytical Systems (McMinnville, Oreg.). […] To quantitate the absorption changes, the area under the curve (AUC0→∞) was calculated for each formulation system and the results are shown in the Table below.

in vivo [2] = conditions: female, beagle, dog, plasma, po, 20 mg; remark: listed apart in the source
Procedure: as §1
Solid Preparation—Paclitaxel. Solid Paclitaxel (300 mg), soy sterols (300 mg) and lysolecithin (900 mg) were added to a 30 mL glass tube and chloroform (3.0 ml) was added. After the solids were dissolved with gentle heating in a 60° C. water bath, the solvent was removed under a stream of nitrogen. The mass was then pumped on under vacuum to remove residual solvent. Addition of water (15 mL) softened the solid mass and the mixture was then sonicated in an ice bath for two minutes on 40% power, followed by two minutes sonication on 50% power and then two minutes sonication on 60% power. […]
Absorption Experiment With Solid Formulations. After dosing with each formulation, all the blood samples were processed and analyzed as described for the liquid formulations.

`CC(=O)O[C@H]1C(=O)[C@@]2(C)[C@H]([C@H](OC(=O)c3ccccc3)[C@]3(O)C[C@H](OC(=O)[C@H](O)[C@@H](NC(=O)c4ccccc4)c4ccccc4)C(C)=C1C3(C)C)[C@]1(OC(C)=O)CO[C@@H]1C[C@@H]2O` [Unformulated Paclitaxel, Paclitaxel] showed an AUC(0-inf) (in vivo [1]) of 28.9 ± 7.1 ng·h/mL and an AUC(0-inf) (in vivo [2]) of 28.9 ± 7.1 ng·h/mL.
